Data published in patent publication US9963445B2, “Chemical compounds” (SYNGENTA PARTICIPATIONS AG, priority 2013, dated 2018).

What was measured:
Assay type in all cases: in vivo
[1] = tested on: Alopecurus myosuroides; assay: Pre-emergence herbicidal activity, glasshouse pot test; details: pre-emergence spray, rate 1000 g/ha, evaluated after 13 days, scale 0-5
Summary of the method: (§1)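 Damage was rated at 13 days from 0 (none) to 5 (total), in a glasshouse kept at 24/16 °C, 14 h light and 65% humidity with watering twice daily. The aqueous spray of active ingredient in 50:50 acetone/water plus 0.5% Tween 20 was applied to soil one day post-sowing, before emergence.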

[2] = tested on: Setaria faberi; assay: as above; details: pre-emergence spray, rate 1000 g/ha, evaluated after 13 days, scale 0-5
Summary of the method: as §1

[3] = tested on: Amaranthus retroflexus; assay: as above; details: pre-emergence spray, rate 1000 g/ha, evaluated after 13 days, scale 0-5
Summary of the method: as §1

[4] = tested on: Echinochloa crus-galli; assay: as above; details: pre-emergence spray, rate 1000 g/ha, evaluated after 13 days, scale 0-5
Summary of the method: as §1

[5] = tested on: zea mays; assay: as above; details: pre-emergence spray, rate 1000 g/ha, evaluated after 13 days, scale 0-5
Summary of the method: as §1

[6] = tested on: Abutilon theophrasti; assay: as above; details: pre-emergence spray, rate 1000 g/ha, evaluated after 13 days, scale 0-5
Summary of the method: as §1

[7] = tested on: Alopecurus myosuroides; assay: Post-emergence herbicidal activity, glasshouse pot test; design: key: 0 = no damage to plant, 5 = total damage to plant; details: Application post-emergence, rate 1000 g/ha, evaluated after 13 days
Summary of the method: (§2)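 Seeds sown in standard soil in pots, grown 8 days in glasshouse (24/16 °C day/night, 14 h light, 65% humidity), then sprayed with aqueous solution from active ingredient formulated in acetone/water (50:50) with 0.5% Tween 20. Plants regrown under same conditions, watered twice daily; damage scored after 13 days (0 none–5 total).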

[8] = tested on: Setaria faberi; assay: as above; design: key: 0 = no damage to plant, 5 = total damage to plant; details: Application post-emergence, rate 1000 g/ha, evaluated after 13 days
Summary of the method: as §2

[9] = tested on: Amaranthus retroflexus; assay: as above; design: key: 0 = no damage to plant, 5 = total damage to plant; details: Application post-emergence, rate 1000 g/ha, evaluated after 13 days
Summary of the method: as §2

[10] = tested on: Echinochloa crus-galli; assay: as above; design: key: 0 = no damage to plant, 5 = total damage to plant; details: Application post-emergence, rate 1000 g/ha, evaluated after 13 days
Summary of the method: as §2

[11] = tested on: zea mays; assay: as above; design: key: 0 = no damage to plant, 5 = total damage to plant; details: Application post-emergence, rate 1000 g/ha, evaluated after 13 days
Summary of the method: as §2

[12] = tested on: Abutilon theophrasti; assay: as above; design: key: 0 = no damage to plant, 5 = total damage to plant; details: Application post-emergence, rate 1000 g/ha, evaluated after 13 days
Summary of the method: as §2

Row | Structure (SMILES) | ALOMY damage score, application pre-emergence [1] | SETFA damage score, application pre-emergence [2] | AMARE damage score, application pre-emergence [3] | ECHCG damage score, application pre-emergence [4] | ZEAMX damage score, application pre-emergence [5] | ABUTH damage score, application pre-emergence [6] | ALOMY herbicidal damage score [7] | SETFA herbicidal damage score [8] | AMARE herbicidal damage score [9] | ECHCG herbicidal damage score [10] | ZEAMX herbicidal damage score [11] | ABUTH herbicidal damage score [12]
1 | COC1=C(C)C(O)N(c2cc(C(C)(F)F)c(C)nn2)C1=O (stereo not drawn) [BI24] | 4 | 4 | 5 | 4 | 3 | 5 | 4 | 5 | 5 | 5 | 3 | 5
2 | C#CC(C)(C)NC(=O)c1ccc(N2C(=O)C(OC)=C(C)C2O)nn1 (stereo not drawn) [BI27] | 2 | 4 | 5 | 4 | 1 | 4 | 4 | 5 | 5 | 5 | 4 | 5
3 | COC1=C(C)C(O)N(c2cc(C)c(Cl)nn2)C1=O (stereo not drawn) [BI29] | 3 | 2 | 3 | 3 | 1 | 0 | 2 | 4 | 5 | 3 | 0 | 1
4 | COC1=C(C)C(O)N(c2cc(C(C)(C)C)c(-c3ccc(F)nc3)nn2)C1=O (stereo not drawn) [BI30] | 4 | 5 | 5 | 5 | 4 | 5 | 5 | 5 | 5 | 5 | 4 | 5
5 | COC1=C(C)C(O)N(c2cc(C(C)(C)C)c(N3CC(F)(F)C3)nn2)C1=O (stereo not drawn) [BI31] | 4 | 5 | 5 | 4 | 3 | 5 | 5 | 5 | 5 | 5 | 4 | 5
6 | COC1=C(C)C(O)N(c2cc(C)c(-c3cnn(C)c3)nn2)C1=O (stereo not drawn) [BI33] | 0 | 0 | 0 | 0 | 0 | 0 | 2 | 2 | 4 | 2 | 1 | 0
7 | COC1=C(OC)C(O)N(c2cc(C)c(OC)nn2)C1=O (stereo not drawn) [BK1] | 4 | 4 | 5 | 4 | 2 | 4 | 4 | 5 | 5 | 5 | 3 | 5
8 | COC1=C(OC)C(O)N(c2ccc(C(F)(F)F)nn2)C1=O (stereo not drawn) [BK2] | 0 | 0 | 0 | 0 | 0 | 0 | 1 | 1 | 1 | 1 | 0 | 1
9 | CC1=C(Cl)C(=O)N(c2cc(C(C)(C)C)ncn2)C1O (stereo not drawn) [CF2] | 4 | 4 | 5 | 4 | 3 | 5 | 5 | 5 | 5 | 5 | 5 | 5
10 | CC1=C(Cl)C(=O)N(c2cc(C(F)(F)F)ncn2)C1O (stereo not drawn) [CF3] | 3 | 3 | 3 | 4 | 1 | 5 | 5 | 5 | 3 | 5 | 4 | 5
11 | CC1=C(Cl)C(=O)N(c2cc(C3CC3)ncn2)C1O (stereo not drawn) [CF4] | 3 | 5 | 5 | 4 | 1 | 5 | 5 | 5 | 5 | 5 | 2 | 5
12 | CC1=C(Cl)C(=O)N(c2cc(OC(C)C)ncn2)C1O (stereo not drawn) [CF5] | 3 | 5 | 4 | 3 | 2 | 4 | 4 | 5 | 4 | 5 | 2 | 5
